Test results published in ChEMBL document CHEMBL4507283, “Data for DCP probe BI-1935” (2021).

How the values were obtained:
[1] = target: Angiotensin-converting enzyme (Oryctolagus cuniculus) (UniProt P12822); assay: ANGIOCONVENZ Eurofins-Panlabs selectivity data (BI); conditions: Compound concentration 10.0 uM
[2] = target: Sodium/potassium-transporting ATPase subunit alpha-1 (Sus scrofa) (UniProt P05024); assay: ATP NA+/K+PI Eurofins-Panlabs selectivity data (BI); conditions: Compound concentration 10.0 uM
[3] = target: Cathepsin G (Homo sapiens) (UniProt P08311); assay: PEPCATHEPSG Eurofins-Panlabs selectivity data (BI); conditions: Compound concentration 10.0 uM
[4] = target: Tyrosine-protein kinase ABL1 (Homo sapiens) (UniProt P00519); conditions: Compound concentration 1000.0 nM
[5] = target: Atypical kinase COQ8A, mitochondrial (Homo sapiens) (UniProt Q8NI60); conditions: Compound concentration 1000.0 nM
[6] = target: ALK tyrosine kinase receptor (Homo sapiens) (UniProt Q9UM73); conditions: Compound concentration 1000.0 nM
[7] = tested on: ALK tyrosine kinase receptor (Homo sapiens), Q9UM73 [L1196M]; conditions: Compound concentration 1000.0 nM
[8] = target: 5'-AMP-activated protein kinase catalytic subunit alpha-1 (Homo sapiens) (UniProt Q13131); conditions: Compound concentration 1000.0 nM
[9] = target: Aurora kinase A (Homo sapiens) (UniProt O14965); conditions: Compound concentration 1000.0 nM
[10] = target: Tyrosine-protein kinase Blk (Homo sapiens) (UniProt P51451); conditions: Compound concentration 1000.0 nM
[11] = target: Serine/threonine-protein kinase BRSK1 (Homo sapiens) (UniProt Q8TDC3); conditions: Compound concentration 1000.0 nM
[12] = target: Tyrosine-protein kinase BTK (Homo sapiens) (UniProt Q06187); conditions: Compound concentration 1000.0 nM
[13] = target: Cyclin-dependent kinase 3 (Homo sapiens) (UniProt Q00526); conditions: Compound concentration 1000.0 nM
[14] = target: Casein kinase I isoform delta (Homo sapiens) (UniProt P48730); conditions: Compound concentration 1000.0 nM
[15] = target: Casein kinase I isoform gamma-3 (Homo sapiens) (UniProt Q9Y6M4); conditions: Compound concentration 1000.0 nM
[16] = target: Discoidin domain-containing receptor 2 (Homo sapiens) (UniProt Q16832); conditions: Compound concentration 1000.0 nM
[17] = tested on: Receptor-type tyrosine-protein kinase FLT3 (Homo sapiens), P36888 [K663Q]; conditions: Compound concentration 1000.0 nM
[18] = target: Cyclin-G-associated kinase (Homo sapiens) (UniProt O14976); conditions: Compound concentration 1000.0 nM
[19] = target: Insulin receptor (Homo sapiens) (UniProt P06213); conditions: Compound concentration 1000.0 nM
[20] = target: Tyrosine-protein kinase JAK2 (Homo sapiens) (UniProt O60674); conditions: Compound concentration 1000.0 nM
[21] = tested on: Hepatocyte growth factor receptor (Homo sapiens), P08581 [Y1235D]; conditions: Compound concentration 1000.0 nM
[22] = target: Serine/threonine-protein kinase Nek7 (Homo sapiens) (UniProt Q8TDX7); conditions: Compound concentration 1000.0 nM
[23] = target: Cyclin-dependent kinase 16 (Homo sapiens) (UniProt Q00536); conditions: Compound concentration 1000.0 nM
[24] = tested on: Phosphatidylinositol 4,5-bisphosphate 3-kinase catalytic subunit alpha isoform (Homo sapiens), P42336 [E545K]; conditions: Compound concentration 1000.0 nM
[25] = tested on: Phosphatidylinositol 4,5-bisphosphate 3-kinase catalytic subunit alpha isoform (Homo sapiens), P42336 [I800L]; conditions: Compound concentration 1000.0 nM
[26] = tested on: Phosphatidylinositol 4,5-bisphosphate 3-kinase catalytic subunit alpha isoform (Homo sapiens), P42336 [M1043I]; conditions: Compound concentration 1000.0 nM
[27] = target: Serine/threonine-protein kinase pim-3 (Homo sapiens) (UniProt Q86V86); conditions: Compound concentration 1000.0 nM
[28] = target: Protein kinase C eta type (Homo sapiens) (UniProt P24723); conditions: Compound concentration 1000.0 nM
[29] = tested on: Proto-oncogene tyrosine-protein kinase receptor Ret (Homo sapiens), P07949 [M918T]; conditions: Compound concentration 1000.0 nM
[30] = target: Serine/threonine-protein kinase SIK1 (Homo sapiens) (UniProt P57059); conditions: Compound concentration 1000.0 nM
[31] = target: Tyrosine-protein kinase SYK (Homo sapiens) (UniProt P43405); conditions: Compound concentration 1000.0 nM
[32] = target: Serine/threonine-protein kinase TAO2 (Homo sapiens) (UniProt Q9UL54); conditions: Compound concentration 1000.0 nM
[33] = target: Serine/threonine-protein kinase TNNI3K (Homo sapiens) (UniProt Q59H18); conditions: Compound concentration 1000.0 nM
[34] = target: Vascular endothelial growth factor receptor 2 (Homo sapiens) (UniProt P35968); conditions: Compound concentration 1000.0 nM
[35] = target: Serine/threonine-protein kinase WNK4 (Homo sapiens) (UniProt Q96J92); conditions: Compound concentration 1000.0 nM
[36] = target: 5-hydroxytryptamine receptor 1D (Homo sapiens) (UniProt P28221); conditions: Compound concentration 10.0 uM
[37] = target: Sigma intracellular receptor 2 (Homo sapiens) (UniProt Q5BJF2); conditions: Compound concentration 10.0 uM
Sequence of Sigma intracellular receptor 2 (Homo sapiens) (Q5BJF2 whole entry): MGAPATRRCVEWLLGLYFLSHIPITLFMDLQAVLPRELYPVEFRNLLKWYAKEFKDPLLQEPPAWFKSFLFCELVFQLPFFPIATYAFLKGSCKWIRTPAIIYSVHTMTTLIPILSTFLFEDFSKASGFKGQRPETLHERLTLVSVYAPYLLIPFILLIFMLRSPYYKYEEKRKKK

Sequence of Tyrosine-protein kinase JAK2 (Homo sapiens) (O60674 whole entry): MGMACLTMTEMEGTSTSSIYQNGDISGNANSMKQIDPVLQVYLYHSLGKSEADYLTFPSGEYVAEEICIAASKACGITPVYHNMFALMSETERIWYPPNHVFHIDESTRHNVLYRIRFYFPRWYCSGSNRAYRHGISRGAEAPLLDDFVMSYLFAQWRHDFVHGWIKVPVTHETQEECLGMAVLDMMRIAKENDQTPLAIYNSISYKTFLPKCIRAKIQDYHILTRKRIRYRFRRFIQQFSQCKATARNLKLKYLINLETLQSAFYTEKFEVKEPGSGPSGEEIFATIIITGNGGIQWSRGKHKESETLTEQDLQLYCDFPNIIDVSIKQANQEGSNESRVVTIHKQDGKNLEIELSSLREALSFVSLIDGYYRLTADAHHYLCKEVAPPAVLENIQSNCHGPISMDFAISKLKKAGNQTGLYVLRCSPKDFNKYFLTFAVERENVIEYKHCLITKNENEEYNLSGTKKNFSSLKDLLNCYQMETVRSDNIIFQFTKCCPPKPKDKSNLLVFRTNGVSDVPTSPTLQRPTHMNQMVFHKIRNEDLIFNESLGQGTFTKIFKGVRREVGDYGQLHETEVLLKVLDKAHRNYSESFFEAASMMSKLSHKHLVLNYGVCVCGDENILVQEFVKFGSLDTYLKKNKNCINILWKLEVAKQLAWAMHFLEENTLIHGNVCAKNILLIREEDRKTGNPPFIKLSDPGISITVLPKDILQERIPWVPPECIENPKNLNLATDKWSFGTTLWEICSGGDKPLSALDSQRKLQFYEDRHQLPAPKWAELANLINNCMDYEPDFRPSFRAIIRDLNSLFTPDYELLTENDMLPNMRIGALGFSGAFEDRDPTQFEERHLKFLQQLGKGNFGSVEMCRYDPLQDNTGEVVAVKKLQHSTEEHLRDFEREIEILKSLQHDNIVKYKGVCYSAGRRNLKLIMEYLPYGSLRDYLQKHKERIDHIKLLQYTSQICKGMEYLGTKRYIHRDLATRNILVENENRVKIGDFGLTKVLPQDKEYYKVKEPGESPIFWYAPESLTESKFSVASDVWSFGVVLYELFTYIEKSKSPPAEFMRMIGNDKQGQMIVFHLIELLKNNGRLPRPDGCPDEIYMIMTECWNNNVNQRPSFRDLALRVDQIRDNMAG
Sequence of Cyclin-dependent kinase 16 (Homo sapiens) (Q00536 whole entry, canonical isoform): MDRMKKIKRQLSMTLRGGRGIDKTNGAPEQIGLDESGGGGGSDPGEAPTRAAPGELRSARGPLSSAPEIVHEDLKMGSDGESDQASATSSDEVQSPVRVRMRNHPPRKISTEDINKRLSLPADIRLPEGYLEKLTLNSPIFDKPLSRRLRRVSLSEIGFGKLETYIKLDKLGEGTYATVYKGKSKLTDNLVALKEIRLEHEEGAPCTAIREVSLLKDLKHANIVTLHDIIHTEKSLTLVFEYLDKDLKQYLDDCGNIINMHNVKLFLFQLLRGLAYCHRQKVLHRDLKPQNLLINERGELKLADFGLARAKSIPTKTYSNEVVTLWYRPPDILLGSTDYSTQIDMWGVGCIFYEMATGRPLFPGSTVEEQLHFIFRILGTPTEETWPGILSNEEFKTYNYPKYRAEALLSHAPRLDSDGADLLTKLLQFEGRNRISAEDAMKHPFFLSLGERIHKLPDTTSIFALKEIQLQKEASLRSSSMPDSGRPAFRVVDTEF
Sequence of Serine/threonine-protein kinase BRSK1 (Homo sapiens) (Q8TDC3 whole entry): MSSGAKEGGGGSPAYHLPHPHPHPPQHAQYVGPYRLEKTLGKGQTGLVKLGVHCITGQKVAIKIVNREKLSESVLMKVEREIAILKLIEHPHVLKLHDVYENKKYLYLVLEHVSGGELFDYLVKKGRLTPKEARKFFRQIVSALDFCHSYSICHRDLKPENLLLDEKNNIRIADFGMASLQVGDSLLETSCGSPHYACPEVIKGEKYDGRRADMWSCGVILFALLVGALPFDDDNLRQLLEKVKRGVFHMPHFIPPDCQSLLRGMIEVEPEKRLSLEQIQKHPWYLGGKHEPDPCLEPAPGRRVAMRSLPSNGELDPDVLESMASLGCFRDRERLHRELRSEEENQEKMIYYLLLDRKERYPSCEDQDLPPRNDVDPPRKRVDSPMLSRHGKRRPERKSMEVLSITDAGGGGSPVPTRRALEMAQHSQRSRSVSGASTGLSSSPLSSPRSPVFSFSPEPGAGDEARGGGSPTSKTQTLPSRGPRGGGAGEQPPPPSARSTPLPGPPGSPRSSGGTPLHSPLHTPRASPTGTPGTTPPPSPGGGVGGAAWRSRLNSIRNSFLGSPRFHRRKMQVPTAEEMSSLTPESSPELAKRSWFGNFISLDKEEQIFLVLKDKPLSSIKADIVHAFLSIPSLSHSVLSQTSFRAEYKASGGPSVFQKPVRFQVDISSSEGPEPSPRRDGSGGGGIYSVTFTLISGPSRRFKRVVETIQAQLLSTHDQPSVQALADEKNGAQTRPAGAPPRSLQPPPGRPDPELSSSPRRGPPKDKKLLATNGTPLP
Sequence of Phosphatidylinositol 4,5-bisphosphate 3-kinase catalytic subunit alpha isoform (Homo sapiens), P42336 [I800L] (P42336 whole entry I800L, canonical isoform): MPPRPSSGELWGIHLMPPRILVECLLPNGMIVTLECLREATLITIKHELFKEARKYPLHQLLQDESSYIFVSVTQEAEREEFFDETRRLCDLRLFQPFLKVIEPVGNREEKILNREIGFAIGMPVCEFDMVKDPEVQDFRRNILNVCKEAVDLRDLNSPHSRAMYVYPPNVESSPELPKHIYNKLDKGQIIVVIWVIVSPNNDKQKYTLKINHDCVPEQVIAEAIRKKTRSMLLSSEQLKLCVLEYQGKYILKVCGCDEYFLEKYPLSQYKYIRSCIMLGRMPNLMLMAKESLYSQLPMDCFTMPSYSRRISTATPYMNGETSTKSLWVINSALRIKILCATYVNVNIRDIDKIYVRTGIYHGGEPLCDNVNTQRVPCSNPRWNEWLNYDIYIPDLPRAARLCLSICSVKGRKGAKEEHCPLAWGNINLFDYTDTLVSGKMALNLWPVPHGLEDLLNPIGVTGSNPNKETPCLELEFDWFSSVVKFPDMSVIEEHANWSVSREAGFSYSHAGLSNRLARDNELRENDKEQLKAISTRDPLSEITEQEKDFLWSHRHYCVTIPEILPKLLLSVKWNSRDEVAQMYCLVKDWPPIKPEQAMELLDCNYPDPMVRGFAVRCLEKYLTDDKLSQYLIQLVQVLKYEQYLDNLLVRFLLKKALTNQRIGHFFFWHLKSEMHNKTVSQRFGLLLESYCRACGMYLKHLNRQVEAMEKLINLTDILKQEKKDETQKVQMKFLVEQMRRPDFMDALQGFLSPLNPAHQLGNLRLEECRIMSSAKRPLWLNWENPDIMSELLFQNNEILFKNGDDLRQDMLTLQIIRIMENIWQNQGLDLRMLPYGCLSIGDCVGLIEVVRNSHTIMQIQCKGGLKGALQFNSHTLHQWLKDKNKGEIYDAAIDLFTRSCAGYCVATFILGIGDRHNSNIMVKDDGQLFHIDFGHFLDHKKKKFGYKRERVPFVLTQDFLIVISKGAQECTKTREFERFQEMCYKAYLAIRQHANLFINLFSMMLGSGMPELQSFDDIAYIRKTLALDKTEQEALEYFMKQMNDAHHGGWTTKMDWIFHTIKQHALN
Sequence of Phosphatidylinositol 4,5-bisphosphate 3-kinase catalytic subunit alpha isoform (Homo sapiens), P42336 [M1043I] (P42336 whole entry M1043I, canonical isoform): as the sequence (P42336 whole entry I800L, canonical isoform) above, with L800I, M1043I counted along it
Sequence of Serine/threonine-protein kinase Nek7 (Homo sapiens) (Q8TDX7 whole entry, looked up): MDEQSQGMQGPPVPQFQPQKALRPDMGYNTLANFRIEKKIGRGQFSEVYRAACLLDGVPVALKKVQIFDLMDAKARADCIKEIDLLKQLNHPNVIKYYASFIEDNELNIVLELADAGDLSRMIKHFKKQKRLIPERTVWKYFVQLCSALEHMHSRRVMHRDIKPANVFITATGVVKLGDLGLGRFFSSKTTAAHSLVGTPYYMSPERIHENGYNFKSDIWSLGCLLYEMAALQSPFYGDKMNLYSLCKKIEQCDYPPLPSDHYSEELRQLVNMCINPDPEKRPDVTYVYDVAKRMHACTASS

CCOCCn1cc(C(=O)Nc2ccc(-n3nc(-c4cccnc4)cc3C(F)(F)F)cn2)ccc1=O [BI 1935]
inactive: residual activity [1] 101% | residual activity [2] 94% | residual activity [3] 117% | residual activity [4] 94% | residual activity [5] 90% | residual activity [6] 79% | residual activity [7] 73% | residual activity [8] 100% | residual activity [9] 85% | residual activity [10] 89% | residual activity [11] 100% | residual activity [12] 79% | residual activity [13] 100% | residual activity [14] 100% | residual activity [15] 100% | residual activity [16] 100% | residual activity [17] 98% | residual activity [18] 100% | residual activity [19] 98% | residual activity [20] 91% | residual activity [21] 100% | residual activity [22] 100% | residual activity [23] 98% | residual activity [24] 96% | residual activity [25] 71% | residual activity [26] 100% | residual activity [27] 90% | residual activity [28] 100% | residual activity [29] 91% | residual activity [30] 100% | residual activity [31] 100% | residual activity [32] 75% | residual activity [33] 100% | residual activity [34] 81% | residual activity [35] 91% | inhibition [36] 0.593% | inhibition [37] -2.98%
